Consider two molecules from patent US11192882B2, “Crystal form of small molecule immune compound, preparation method thereof and pharmaceutical composition containing the same” (SHENZHEN NEPTUNUS PHARMACEUTICAL RESEARCH INSTITUTE CO., …, priority 2018, dated 2021).

Structures are written as SMILES.

A short description of this series: Stress testing (accelerated test for 10 days) of the solid: crystal form B and crude product. The series is classed as physicochemical. The following applies: for Purity compared with day 0 (in words): accelerated test for 10 days. On the procedure:
Detection instrument: Agilent 1260 series (U.S.)
Chromatographic column: Waters Sunfire C18;
Mobile phase A: water-mobile phase acetonitrile B (80:20);
Column temperature: 40° C.; Detection wavelength: 390 nm.
Detection basis: High performance liquid chromatography method, Pharmacopoeia of the People's Republic of China, Part II Appendix VD
The obtained crystal form B was subjected to stability studies (accelerated test for 10 days), to compare the data of purity, maximum single impurity and total impurities of the new crystal form under the conditions of 60° C., humidity 92.5%, and light irradiation with the data on day 0.
The crude product of (3Z,6Z)-3-[((E)-3-(5-tert-butyl)-1H-imidazolyl-4-yl)meth ylene]-6-((E)-3-(3-fluorophenyl)-2-propenylene)piperazine-2,5-dione was subjected to stability studies (accelerated test for 10 days), to compare the data of purity, maximum single impurity of the crude product stored at 40° C., 60° C. to the data on day 0.

[1] abbreviates: Day 10, sample 1, no stress condition given.

Turning to `CC(C)(C)c1nc[nH]c1/C=c1\[nH]c(=O)/c(=C/C=C/c2cccc(F)c2)[nH]c1=O` [crystal form B, (3Z,6Z)-3-[((E)-3-(5-tert-butyl)-1H-imidazolyl-4-yl)methylene]-6-((E)-3-(3-fluorophenyl)-2-propenylene)piperazine-2,5-dione], the “Maximum single impurity (%)” value is, setting by setting: (Day 0) 0.24 (RRT: 0.95) %; (Day 5, 60° C.) 0.24 (RRT: 0.95) %; (Day 5, humidity 92.5%) 0.24 (RRT: 0.95) %; (Day 5, light irradiation) 0.26 (RRT: 0.95) %; (Day 10, 60° C.) 0.24 (RRT: 0.95) %; (Day 10, humidity 92.5%) 0.24 (RRT: 0.95) %. Moreover, the “Maximum single impurity (%)” value is given as 0.26 (RRT: 0.95) % (Day 10, light irradiation) and 0.24 (RRT: 0.95) % under setting [1]. The “Purity (%)” value is on record as 99.50% (Day 0); 99.50% (Day 5, 60° C.); 99.50% (Day 5, humidity 92.5%); 99.40% (Day 5, light irradiation); 99.50% (Day 10, 60° C.); 99.50% (Day 10, humidity 92.5%). Besides, the “Purity (%)” value by setting is: (Day 10, light irradiation) 99.40%; under setting [1], 99.50%. Besides, the “Total impurities (%)” value (Day 0) was determined as 0.50%; the “Total impurities (%)” value (Day 5, 60° C.) was 0.50%; the “Total impurities (%)” value (Day 5, humidity 92.5%) worked out at 0.50%; the “Total impurities (%)” value (Day 5, light irradiation) worked out at 0.60%; the “Total impurities (%)” value (Day 10, 60° C.) was determined as 0.50%; the “Total impurities (%)” value (Day 10, humidity 92.5%) was 0.50%. The “Total impurities (%)” value is, setting by setting: (Day 10, light irradiation) 0.60%; under setting [1], 0.50%. Also, the “Purity compared with day 0 (in words)” value by setting is: (light irradiation) “slightly reduced”; (other conditions (60° C., humidity 92.5%)) “stable”.
`CC(C)(C)c1nc[nH]c1/C=c1\[nH]c(=O)/c(=C/C=C/c2cccc(F)c2)[nH]c1=O` [Crude product, (3Z,6Z)-3-[((E)-3-(5-tert-butyl)-1H-imidazolyl-4-yl)methylene]-6-((E)-3-(3-fluorophenyl)-2-propenylene)piperazine-2,5-dione]: the “Purity compared with crystal form B under the same conditions (in words)” value (60° C., day 5 and day 10) was “lower than that of the crystal form B”. Further, the “Content (%)” value was determined as 99.08% (crude product, 40° C. Day 5); 98.68% (crude product, 40° C. Day 10); 96.89% (crude product, 60° C. Day 5); 95.27% (crude product, 60° C. Day 10); 99.49% (crude product, Day 0). Further, the “Maximum single impurity (%)” value reads like this: (crude product, 40° C. Day 5) 0.25(RRT: 0.95) %; (crude product, 40° C. Day 10) 0.50(RRT: 0.95) %; (crude product, 60° C. Day 5) 1.14(RRT: 0.91) %; (crude product, 60° C. Day 10) 1.88(RRT: 0.91) %; (crude product, Day 0) 0.24(RRT: 0.95) %.
